How the values were obtained:
Type in all cases: in vivo
Sunflower = assay: Test C preemergence; details: scale 0 to 100
rice (Oryza saliva) = assay: Test C flooded paddy test; details: for Rice plant response rating: Flooded Paddy, scale 0 to 100, 0 no effect, 100 complete control; for Plant response rating, Rice: flooded paddy test, scale 0 to 100 (0 no effect, 100 complete control)
Outline: (§1)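 Visual injury score, 0 (no effect) to 100 (complete control), relative to controls. Paddy plants treated at 2-leaf stage; greenhouse hold 12–14 d before rating.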

[1] = system: duck salad (Heteranthera limosa); assay: Test C flooded paddy test; details: for Ducksalad plant response rating: Flooded Paddy, scale 0 to 100, 0 no effect, 100 complete control; for Plant response rating, Ducksalad: flooded paddy test, scale 0 to 100 (0 no effect, 100 complete control)
Outline: as §1

[2] = system: barnyardgrass (Echinochloa crus-galli); assay: Test C flooded paddy test; details: for Barnyardgrass plant response rating: Flooded Paddy, scale 0 to 100, 0 no effect, 100 complete control; for Plant response rating, Barnyardgrass: flooded paddy test, scale 0 to 100 (0 no effect, 100 complete control)
Outline: as §1

## CC(C)Oc1cccc(N2CCC(n3ccc(C(C)(C)C)n3)C2=O)c1 (centres unmarked) [Compound 70]
Sunflower; Rate 31 g/ha
  Plant response rating, Sunflower: 0
Rice (Oryza saliva); Rate 250 g/ha
  Rice plant response rating: 60
Rice (Oryza saliva); Rate 500 g/ha
  Rice plant response rating: 90
Rice (Oryza saliva); Rate 62 g/ha
  Plant response rating, Rice: 20
[1]; Rate 250 g/ha
  Ducksalad plant response rating: 100
[1]; Rate 500 g/ha
  Ducksalad plant response rating: 100
[1]; Rate 62 g/ha
  Plant response rating, Ducksalad: 100
[2]; Rate 250 g/ha
  Barnyardgrass plant response rating: 100
[2]; Rate 500 g/ha
  Barnyardgrass plant response rating: 100
[2]; Rate 62 g/ha
  Plant response rating, Barnyardgrass: 60

## COC(=O)c1cccc(N2CCC(n3ccc(C(C)(C)C)n3)C2=O)c1 (centres unmarked) [Compound 73]
Sunflower; Rate 31 g/ha
  Plant response rating, Sunflower: 40
Rice (Oryza saliva); Rate 250 g/ha
  Rice plant response rating: 50
Rice (Oryza saliva); Rate 500 g/ha
  Rice plant response rating: 60
Rice (Oryza saliva); Rate 62 g/ha
  Plant response rating, Rice: 0
Rice (Oryza saliva); Rate 125 g/ha
  Plant response rating, Rice: 20
[1]; Rate 250 g/ha
  Ducksalad plant response rating: 100
[1]; Rate 500 g/ha
  Ducksalad plant response rating: 100
[1]; Rate 62 g/ha
  Plant response rating, Ducksalad: 70
[1]; Rate 125 g/ha
  Plant response rating, Ducksalad: 90
[2]; Rate 250 g/ha
  Barnyardgrass plant response rating: 100
[2]; Rate 500 g/ha
  Barnyardgrass plant response rating: 100
[2]; Rate 62 g/ha
  Plant response rating, Barnyardgrass: 30
[2]; Rate 125 g/ha
  Plant response rating, Barnyardgrass: 70

## CCC(CC)c1ccn(C2CCN(c3cccc(OC(C)C)c3)C2=O)n1 (centres unmarked) [Compound 84]
Sunflower; Rate 62 g/ha
  Plant response rating, Sunflower: 0
Rice (Oryza saliva); Rate 250 g/ha
  Rice plant response rating: 30
Rice (Oryza saliva); Rate 500 g/ha
  Rice plant response rating: 90
Rice (Oryza saliva); Rate 62 g/ha
  Plant response rating, Rice: 0
Rice (Oryza saliva); Rate 125 g/ha
  Plant response rating, Rice: 0
[1]; Rate 250 g/ha
  Ducksalad plant response rating: 100
[1]; Rate 500 g/ha
  Ducksalad plant response rating: 100
[1]; Rate 62 g/ha
  Plant response rating, Ducksalad: 90
[1]; Rate 125 g/ha
  Plant response rating, Ducksalad: 90
[2]; Rate 250 g/ha
  Barnyardgrass plant response rating: 100
[2]; Rate 500 g/ha
  Barnyardgrass plant response rating: 100
[2]; Rate 62 g/ha
  Plant response rating, Barnyardgrass: 80

## CSc1cccc(N2CCC(n3ccc(C(C)(C)C)n3)C2=O)c1 (centres unmarked) [Compound 86]
Sunflower; Rate 62 g/ha
  Plant response rating, Sunflower: 0
Rice (Oryza saliva); Rate 250 g/ha
  Rice plant response rating: 0
Rice (Oryza saliva); Rate 500 g/ha
  Rice plant response rating: 20
Rice (Oryza saliva); Rate 62 g/ha
  Plant response rating, Rice: 0
Rice (Oryza saliva); Rate 125 g/ha
  Plant response rating, Rice: 0
[1]; Rate 250 g/ha
  Ducksalad plant response rating: 100
[1]; Rate 62 g/ha
  Plant response rating, Ducksalad: 0
[1]; Rate 125 g/ha
  Plant response rating, Ducksalad: 0
[2]; Rate 250 g/ha
  Barnyardgrass plant response rating: 100
[2]; Rate 500 g/ha
  Barnyardgrass plant response rating: 100
[2]; Rate 62 g/ha
  Plant response rating, Barnyardgrass: 0
[2]; Rate 125 g/ha
  Plant response rating, Barnyardgrass: 30

## COc1cccc(N2CCC(n3ccc(C(C)(C)C)n3)C2=O)c1 (centres unmarked) [Compound 87]
Sunflower; Rate 62 g/ha
  Plant response rating, Sunflower: 20
Rice (Oryza saliva); Rate 250 g/ha
  Rice plant response rating: 20
Rice (Oryza saliva); Rate 500 g/ha
  Rice plant response rating: 80
Rice (Oryza saliva); Rate 62 g/ha
  Plant response rating, Rice: 0
Rice (Oryza saliva); Rate 125 g/ha
  Plant response rating, Rice: 20
[1]; Rate 250 g/ha
  Ducksalad plant response rating: 50
[1]; Rate 500 g/ha
  Ducksalad plant response rating: 100
[1]; Rate 62 g/ha
  Plant response rating, Ducksalad: 0
[1]; Rate 125 g/ha
  Plant response rating, Ducksalad: 50
[2]; Rate 250 g/ha
  Barnyardgrass plant response rating: 70
[2]; Rate 500 g/ha
  Barnyardgrass plant response rating: 100
[2]; Rate 62 g/ha
  Plant response rating, Barnyardgrass: 0
[2]; Rate 125 g/ha
  Plant response rating, Barnyardgrass: 70

## CC(C)(C)c1ccn(C2CCN(c3cccc(I)c3)C2=O)n1 (centres unmarked) [Compound 88]
Sunflower; Rate 62 g/ha
  Plant response rating, Sunflower: 10
Rice (Oryza saliva); Rate 250 g/ha
  Rice plant response rating: 30
Rice (Oryza saliva); Rate 500 g/ha
  Rice plant response rating: 70
Rice (Oryza saliva); Rate 62 g/ha
  Plant response rating, Rice: 0
Rice (Oryza saliva); Rate 125 g/ha
  Plant response rating, Rice: 20
[1]; Rate 250 g/ha
  Ducksalad plant response rating: 60
[1]; Rate 500 g/ha
  Ducksalad plant response rating: 60
[1]; Rate 62 g/ha
  Plant response rating, Ducksalad: 0
[1]; Rate 125 g/ha
  Plant response rating, Ducksalad: 10
[2]; Rate 250 g/ha
  Barnyardgrass plant response rating: 100
[2]; Rate 500 g/ha
  Barnyardgrass plant response rating: 100
[2]; Rate 62 g/ha
  Plant response rating, Barnyardgrass: 30
[2]; Rate 125 g/ha
  Plant response rating, Barnyardgrass: 100

## CCCC(C)c1ccn(C2OCN(c3cccc(C(F)(F)F)c3)C2=O)n1 (centres unmarked) [Compound 89]
Sunflower; Rate 62 g/ha
  Plant response rating, Sunflower: 0
Rice (Oryza saliva); Rate 250 g/ha
  Rice plant response rating: 20
Rice (Oryza saliva); Rate 500 g/ha
  Rice plant response rating: 40
Rice (Oryza saliva); Rate 62 g/ha
  Plant response rating, Rice: 0
Rice (Oryza saliva); Rate 125 g/ha
  Plant response rating, Rice: 0
[1]; Rate 250 g/ha
  Ducksalad plant response rating: 40
[1]; Rate 500 g/ha
  Ducksalad plant response rating: 90
[1]; Rate 62 g/ha
  Plant response rating, Ducksalad: 0
[1]; Rate 125 g/ha
  Plant response rating, Ducksalad: 0
[2]; Rate 250 g/ha
  Barnyardgrass plant response rating: 100
[2]; Rate 500 g/ha
  Barnyardgrass plant response rating: 100
[2]; Rate 62 g/ha
  Plant response rating, Barnyardgrass: 20
[2]; Rate 125 g/ha
  Plant response rating, Barnyardgrass: 70

## CCCC(C)c1ccn(C2SCN(c3cccc(OC(F)(F)F)c3)C2=O)n1 (centres unmarked) [Compound 90]
Sunflower; Rate 31 g/ha
  Plant response rating, Sunflower: 0
Sunflower; Rate 62 g/ha
  Plant response rating, Sunflower: 0
Rice (Oryza saliva); Rate 250 g/ha
  Rice plant response rating: 0
Rice (Oryza saliva); Rate 500 g/ha
  Rice plant response rating: 20
Rice (Oryza saliva); Rate 62 g/ha
  Plant response rating, Rice: 0
Rice (Oryza saliva); Rate 125 g/ha
  Plant response rating, Rice: 0
[1]; Rate 250 g/ha
  Ducksalad plant response rating: 90
[1]; Rate 500 g/ha
  Ducksalad plant response rating: 90
[1]; Rate 62 g/ha
  Plant response rating, Ducksalad: 80
[2]; Rate 250 g/ha
  Barnyardgrass plant response rating: 90
[2]; Rate 500 g/ha
  Barnyardgrass plant response rating: 100
[2]; Rate 62 g/ha
  Plant response rating, Barnyardgrass: 30
[2]; Rate 125 g/ha
  Plant response rating, Barnyardgrass: 60

## CCCC(C)c1ccn(C2SCN(c3cccc(C(F)(F)F)c3)C2=O)n1 (centres unmarked) [Compound 92]
Sunflower; Rate 62 g/ha
  Plant response rating, Sunflower: 0
Rice (Oryza saliva); Rate 250 g/ha
  Rice plant response rating: 30
Rice (Oryza saliva); Rate 500 g/ha
  Rice plant response rating: 30
Rice (Oryza saliva); Rate 62 g/ha
  Plant response rating, Rice: 0
Rice (Oryza saliva); Rate 125 g/ha
  Plant response rating, Rice: 0
[1]; Rate 250 g/ha
  Ducksalad plant response rating: 100
[1]; Rate 500 g/ha
  Ducksalad plant response rating: 100
[1]; Rate 62 g/ha
  Plant response rating, Ducksalad: 80
[1]; Rate 125 g/ha
  Plant response rating, Ducksalad: 100
[2]; Rate 250 g/ha
  Barnyardgrass plant response rating: 100
[2]; Rate 500 g/ha
  Barnyardgrass plant response rating: 100
[2]; Rate 62 g/ha
  Plant response rating, Barnyardgrass: 50
[2]; Rate 125 g/ha
  Plant response rating, Barnyardgrass: 100

## CCC(C)c1ccn(C2CCN(c3cccc(OC)c3)C2=O)n1 (centres unmarked) [Compound 95]
Sunflower; Rate 62 g/ha
  Plant response rating, Sunflower: 0
Rice (Oryza saliva); Rate 250 g/ha
  Rice plant response rating: 70
Rice (Oryza saliva); Rate 500 g/ha
  Rice plant response rating: 90
Rice (Oryza saliva); Rate 62 g/ha
  Plant response rating, Rice: 0
Rice (Oryza saliva); Rate 125 g/ha
  Plant response rating, Rice: 20
[1]; Rate 250 g/ha
  Ducksalad plant response rating: 100
[1]; Rate 500 g/ha
  Ducksalad plant response rating: 100
[1]; Rate 62 g/ha
  Plant response rating, Ducksalad: 70
[1]; Rate 125 g/ha
  Plant response rating, Ducksalad: 90
[2]; Rate 250 g/ha
  Barnyardgrass plant response rating: 100
[2]; Rate 500 g/ha
  Barnyardgrass plant response rating: 100
[2]; Rate 62 g/ha
  Plant response rating, Barnyardgrass: 70
[2]; Rate 125 g/ha
  Plant response rating, Barnyardgrass: 70

— US7138361B2, “Herbicidal heterocycles” (E. I. du Pont de Nemours and Company, priority 2000, dated 2006)
